This is an account of results in patent US5160727A, “Tumor cell sensitization method using quinazolinedione derivatives” (priority 1990, dated 1992).

Structures can show the parent of a compound that is named as a salt. Where two headings read alike, the source gives them in different places.

The subject of one assay is P388R cells. Nature of the assay: Potentiation of adriamycin activity and cell growth in P388 resistant cells (Table II). It is filed as cell-based, murine. The conditions noted are these: for activity at 5 µM / activity at 10 µM: Mus musculus; for Degree of ADR Potentiation in P388R: footnote a (drawing 3). As for the experimental part: The P388 murine leukemia cells used in obtaining the data set forth in Table I and Table II were obtained from Southern Research Institute (Birmingham, Ala.) and were cultured from ascites fluids of tumor-bearing DMA/2 mice and maintained in Fischer's medium supplemented with 10% horse serum, 10 μM 2-mercaptoethanol, and gentamycin (50 μg/mL). Cells were counted with a Model ZF Coulter Counter (Coulter Electronics, Inc., Hialeah, Fla.). Viability was determined by trypan blue exclusion. […] Cancer Inst.

The subject of another assay is P388S cells. As to the kind of experiment: 72-hour growth inhibition of drug-sensitive P388S cells by anticancer drug alone or with modifier (Table I). It is filed as cell-based, murine. The conditions noted are these: modifier with adriamycin. As for the experimental part:
In performing the studies P388 that were sensitive to adriamycin (P388S) and P388 cells that were resistant to adriamycin (P388/ADR) were exposed to various concentrations of anticancer drug either alone or together with 5 μg/mL of modifier or sensitizer for 72 hours.
The P388 murine leukemia cells used in obtaining the data set forth in Table I and Table II were obtained from Southern Research Institute (Birmingham, Ala.) and were cultured from ascites fluids of tumor-bearing DMA/2 mice and maintained in Fischer's medium supplemented with 10% horse serum, 10 μM 2-mercaptoethanol, and gentamycin (50 μg/mL). Cells were counted with a Model ZF Coulter Counter (Coulter Electronics, Inc., Hialeah, Fla.). Viability was determined by trypan blue exclusion. The general methodology is described by W. D. Klohs, et al, Cancer Research 46, 4352-4356 (September 1986) and W. D. Klohs, et al, J. Nat'l. Cancer Inst. 75, 353-359 (1985).

The mark [1] stands for this setting: P388, test compound at 5 μM, read-out: % of Control Cell Growth.
[2] abbreviates: P388, test compound at 10 μM, read-out: % of Control Cell Growth.
Setting [3] is: test compound at 5 μM with adriamycin.
[4] abbreviates: test compound at 10 μM with adriamycin.
Setting [5] is: P388, read-out: % of Control Cell Growth.

On to `CCCSc1ccccc1N1CCN(CCCCCn2c(=O)[nH]c3cc(OC)c(OC)cc3c2=O)CC1` [Example 14, 6,7-dimethoxy-3-[5-[4-[2-(propylthio)phenyl]-1-piperazinyl]pentyl]-2,4(1H,3H)-quinazolinedione], for which, in the assay on P388R cells (setting [1]), the activity at 5 µM is 53%. Moreover, the activity at 10 µM in the assay on P388R cells (setting [2]) is 1.2%. In addition, the “Degree of ADR Potentiation in P388R” value with P388R cells (setting [3]) was 65.0.
Consider `CSc1ccccc1N1CCN(CCCCn2c(=O)[nH]c3ccccc3c2=O)CC1` [Example 7, 3-[4-[4-[2-methylthio)phenyl]-1-piperazinyl]butyl]-2,4(1H,3H)quinazolinedione monohydrochloride], for which, in the assay with P388R cells (setting [1]), the activity at 5 µM was 95%. The activity at 10 µM with P388R cells (setting [2]) is 72%. Further, the “Degree of ADR Potentiation in P388R” value is listed as 25.2 with P388R cells (setting [3]) and 48.4 in the assay with P388R cells (setting [4]).
For the molecule `CCCSc1ccccc1N1CCN(CCCCn2c(=O)[nH]c3c(OC)cccc3c2=O)CC1` [Example 17, 8-methoxy-3-[4-[4-[2-(propylthio)phenyl]-1-piperazinyl]butyl]-2,4-(1H,3H)quinazolinedione], in the assay with P388R cells (setting [1]), the activity at 5 µM worked out at 83%. Also, the activity at 10 µM in the assay on P388R cells (setting [2]) came to 39%. The “Degree of ADR Potentiation in P388R” value in the assay with P388R cells (setting [3]) turned out to be 3.4; in the assay on P388R cells (setting [4]) it was 67.2.
The like results for `CCCSc1ccccc1N1CCN(CCCCn2c(=O)c3ccccc3n(C)c2=O)CC1` [Example 12, 1-methyl-3-[4-[4-[2-(propylthio)phenyl]-1-piperazinyl]butyl] -2,4-(1H,3H)quinazolinedione] were, in that order, 100%, 87%, 17.9 and 39.1.
For `CC(C)Sc1ccccc1N1CCN(CCCCn2c(=O)[nH]c3ccccc3c2=O)CC1.Cl` [Example 6, 3-[4-[4-[2-[(1-methylethyl)thio]phenyl]-1-piperazinyl]butyl]-2,4-(1H,3H)-quinazolinedione monohydrochloride], the activity at 5 µM in the assay on P388R cells (setting [1]) is 91%. Moreover, the activity at 10 µM with P388R cells (setting [2]) turned out to be 59%. Further, the “Degree of ADR Potentiation in P388R” value is 24.2 with P388R cells (setting [3]) and 52.2 in the assay with P388R cells (setting [4]).
The like results for `CCCSc1ccccc1N1CCN(CCCCn2c(=O)[nH]c3cc(Cl)ccc3c2=O)CC1.Cl` [Example 9, 7-chloro-3-[4-[4-[2-(propylthio)phenyl]-1-piperazinyl]butyl]2,4(1H,3H)-quinazolinedione monohydrochloride] were, in that order, 100%, 85%, 22.2 and 35.4.
As to `CCSc1ccccc1N1CCN(CCCCn2c(=O)[nH]c3ccccc3c2=O)CC1.Cl` [Example 5, 3-[4-[4-[2-(ethylthio)phenyl)-1-piperazinyl]butyl]-2,4-(1H,3H)-quinazolinedione monohydrochloride], the activity at 5 µM in the assay with P388R cells (setting [1]) came out at 79%. In addition, the activity at 10 µM in the assay with P388R cells (setting [2]) was determined as 78%. The “Degree of ADR Potentiation in P388R” value was determined as 19.6 with P388R cells (setting [3]) and 46.6 with P388R cells (setting [4]).
For cyclosporin A, the “effect on adriamycin activity in drug-sensitive parent P388S cells” value in the assay on P388S cells was “little effect”.
As for `CCCSc1ccccc1N1CCN(CCCCCn2c(=O)c3cc(OC)c(OC)cc3n(C)c2=O)CC1` [Example 16, 6,7-dimethoxy-1-methyl-3-[5-[4-[2-(propylthio)phenyl]-1-piperazinyl]pentyl]-2,4(1H,3H)-quinazolinedione], the activity at 5 µM with P388R cells (setting [1]) came to 33%. Moreover, in the assay on P388R cells (setting [2]), the activity at 10 µM came to 4.2%. Besides, the “Degree of ADR Potentiation in P388R” value in the assay on P388R cells (setting [3]) is 44.5.
Take `CCCSc1ccccc1N1CCN(CCCCn2c(=O)[nH]c3ccc(C)cc3c2=O)CC1.Cl` [Example 10, 6-methyl-3-[4-[4[2(propylthio)phenyl]-1-piperazinyl]butyl]-2,4(1H,3H)-quinazolinedione monohydrochloride]: the activity at 5 µM in the assay on P388R cells (setting [1]) was 92%. For the same molecule, the activity at 10 µM with P388R cells (setting [2]) was found to be 85%. Besides, the figures for the “Degree of ADR Potentiation in P388R” value in the assay on P388R cells (setting [3]) and in the assay on P388R cells (setting [4]) were 21.0 and 48.4, respectively.
The like results for `CCCSc1ccccc1N1CCN(CCCCCn2c(=O)[nH]c3ccccc3c2=O)CC1` [Example 19, 3-[5-[4-[2-(propylthio)phenyl]-1-piperazinyl]pentyl]-2,4-(1H,3H)-quinazolinedione] were, in that order, 100%, 68%, 36.7 and 66.9.
As to `CCCSc1ccccc1N1CCN(CCCCCCn2c(=O)[nH]c3ccccc3c2=O)CC1` [Example 11, 3-[6-[4-[2-(propylthio)phenyl]-1-piperazinyl]hexyl]-2,4-(1H,3H)quinazolinedione monohydrochloride, 1/3 hydrate], the activity at 5 µM in the assay on P388R cells (setting [1]) is 99%. The activity at 10 µM in the assay with P388R cells (setting [2]) amounted to 66%. The figures for the “Degree of ADR Potentiation in P388R” value with P388R cells (setting [3]) and with P388R cells (setting [4]) were 73.8 and 52.2, respectively.
Taken in the same sequence, the figures for `CCCSc1ccccc1N1CCN(CCCn2c(=O)[nH]c3ccccc3c2=O)CC1.Cl` [Example 2, 3-[3-[4-[2-(propylthio)phenyl]-1-piperazinyl]propyl]-2,4-(1H,3H)-quinazolinedione monohydrochloride] were 89%, 87%, 13.1 and 22.0.
Take `CCCSc1ccccc1N1CCN(CCCCn2c(=O)c3cccc(OC)c3n(C)c2=O)CC1.Cl` [Example 18, 8-methoxy-1-methyl-3-[4-[4-[2-(propylthio)phenyl]-1-piperazinyl]butyl]-2,4-(1H,3H)quinazolinedione monohydrochloride]: the activity at 5 µM in the assay on P388R cells (setting [1]) stood at 100%. Moreover, the activity at 10 µM in the assay on P388R cells (setting [2]) was found to be 87%. Also, the “Degree of ADR Potentiation in P388R” value came to 21.1 in the assay with P388R cells (setting [3]) and 24.6 in the assay with P388R cells (setting [4]).
The like results for `CCCSc1ccccc1N1CCN(CCCCn2c(=O)[nH]c3ccc(Cl)cc3c2=O)CC1.Cl` [Example 3, 6-chloro-3-[4-[4-[2-(propylthio)phenyl]-1-piperazinyl]butyl]-2,4-(1H,3H)quinazolinedione monohydrochloride] were, in that order, 100%, 88%, 19.6 and 44.7.
The like results for `CCCCSc1ccccc1N1CCN(CCCCn2c(=O)[nH]c3ccccc3c2=O)CC1.Cl` [Example 8, 3-[4-[4-[2-(butylthio)phenyl]-1-piperazinyl]butyl]-2,4-(1H,3H)-quinazolinedione monohydrochloride] were, in that order, 88%, 86%, 25.0 and 48.4.
Turning to `Cl.O=c1[nH]c2ccccc2c(=O)n1CCCCN1CCN(c2cccc(Cl)c2Cl)CC1` [Example 4, 3-[4-[4-(2,3-dichlorophenyl)-1-piperazinyl]butyl]-2,4-(1H,3H)-quinazolinedione monohydrochloride], in the assay with P388R cells (setting [5]), the activity at 5 µM was 76% and the activity at 10 µM is 76%. The “Degree of ADR Potentiation in P388R” value in the assay on P388R cells (setting [3]) was 21.8. The “Degree of ADR Potentiation in P388R” value in the assay on P388R cells (setting [4]) is 31.7.
As to `CCCSc1ccccc1N1CCN(CCCCn2c(=O)[nH]c3cc(OC)c(OC)cc3c2=O)CC1` [Example 13, 6,7-dimethoxy-3-[4-[4-[2-(propylthio)phenyl]-1-piperazinyl]butyl]-2,4-(1H,3H)-quinazolinedione], in the assay on P388R cells (setting [1]), the activity at 5 µM was 100%. Besides, the activity at 10 µM in the assay with P388R cells (setting [2]) turned out to be 10.4%. Besides, the “Degree of ADR Potentiation in P388R” value in the assay on P388R cells (setting [3]) was found to be 93.0; with P388R cells (setting [4]) it was 52.2.
`CCCSc1ccccc1N1CCN(CCCCn2c(=O)c3cc(OC)c(OC)cc3n(C)c2=O)CC1` [Example 15, 6,7-dimethoxy-1-methyl-3-[4-[4-[2-(propylthio)phenyl]-1-piperazinyl]butyl]-2,4(1H,3H)-quinazolinedione]: the activity at 5 µM in the assay with P388R cells (setting [1]) was 46%. The activity at 10 µM with P388R cells (setting [2]) worked out at 2.6%. Moreover, the “Degree of ADR Potentiation in P388R” value in the assay on P388R cells (setting [3]) was 21.2.
